Test results as given in patent publication US20190101533A1, “ANIMAL MODEL FOR STUDYING ZCCHC6 IN BONE DISEASE AND DEVELOPMENT” (Northeast Ohio Medical University, priority 2016, published 2019).

System: human OA chondrocytes
Experiment: IL-1β stimulation of human OA chondrocytes: ZCCHC6, ZCCHC11 and IL-6 expression (TaqMan, ELISA, Western immunoblotting)
Type: cell-based
Procedure: Chondrocytes were derived by enzymatic digestion of human cartilage obtained from OA patients (n=14) undergoing knee joint replacement. Chondrocytes were stimulated with IL-1β (5 ng/ml) or treated with Actinomycin D (5 μg/ml) or NFκB inhibitor SC514 (75 μM) or JNK inhibitor (25 μM). Total RNA from grounded cartilage and from chondrocytes was purified using Qiagen RNeasy kit (Qiagen). Reverse transcription was performed using the Quantitect Reverse Transcription kit and the ZCCHC6 or IL-6 mRNA was quantified using TaqMan assays. SiRNA-mediated depletion of ZCCHC6 in human chondrocytes was used to study the effect on inflammatory cytokine expression using a cytokine array (Ray Biotech). Protein expression of IL-6 was studied using Western immunoblotting and quantified by ELISA in culture supernatants. Results were derived using Sigma Plot 12.3 package and p<0.05 was considered significant.
We next determined whether IL-1β induces expression of IL-6 correlates with the expression of ZCCHC6 in human OA chondrocytes. Human OA chondrocytes were cultured and treated with IL-1β as above and the mRNA expression of IL-6 was quantified by TaqMan assay and secreted IL-6 was quantified using an ELISA kit specific for human IL-6 (R&D Systems, Catalog No. D0650, sensitivity of 2.17 pg IL-6/ml). ZCCHC6 protein expression was determined by Western immunoblotting using an antibody specific for the N-terminus of the protein (Santa Cruz, sc-137947).

[1] = human OA chondrocytes stimulated with IL-1β (5 ng/ml) for 24 h

IL-1β: major cytokine involved in cartilage catabolism in osteoarthritis; used to stimulate chondrocytes
expression of ZCCHC6 protein (Western immunoblotting) [1]: highly induced | secreted IL-6 in the culture medium (ELISA) [1]: secreted large amounts of IL-6 | expression of ZCCHC11 (human chondrocytes treated with IL-1β): marginally upregulated
